Measurements from ChEMBL document CHEMBL3580659, “One-pot multicomponent synthesis of indole incorporated thiazolylcoumarins and their antibacterial, anticancer and DNA cleavage studies” (2015).
Activity calls are given as the source filed them. The rule behind the calls is not given here.

Legend:
Escherichia coli [1] = test: Induction of DNA cleavage of Escherichia coli pUC18 plasmid DNA at 50 ug/ml after 2 hrs by agarose gel elctrophoresis method
Escherichia coli [2] = test: Antibacterial activity against Escherichia coli assessed as bacterial growth inhibition at 50 ug/ml after 24 hrs by cup-plate agar diffusion method; assay type: functional; details: read-out: IZ
Bacillus subtilis = test: Antibacterial activity against Bacillus subtilis assessed as bacterial growth inhibition at 50 ug/ml after 24 hrs by cup-plate agar diffusion method; assay type: functional; details: read-out: IZ
Escherichia coli [3] = test: Induction of DNA cleavage of Escherichia coli pUC18 plasmid DNA at 100 ug/ml after 2 hrs by agarose gel elctrophoresis method

Activity (Escherichia coli [1])	Activity (Escherichia coli [3])	Compound	zone of inhibition at 50 µg/mL (Escherichia coli [2]) [mm]	zone of inhibition at 50 µg/mL (Bacillus subtilis) [mm]
Active		Cc1[nH]c2ccccc2c1/C=N/Nc1nc(-c2cc3cc(Br)ccc3oc2=O)cs1	12	10
Active		O=c1oc2ccc(Cl)cc2cc1-c1csc(N/N=C/c2c[nH]c3ccccc23)n1	15	13
Active		CCn1cc(/C=N/Nc2nc(-c3cc4cc(Br)cc(Br)c4oc3=O)cs2)c2ccccc21	10	10
	Active	CCn1cc(/C=N/Nc2nc(-c3cc4c(ccc5ccccc54)oc3=O)cs2)c2ccccc21	12	15
	Active	CCn1cc(/C=N/Nc2nc(-c3cc4ccccc4oc3=O)cs2)c2ccccc21	10	10
Active		O=c1oc2ccc(Br)cc2cc1-c1csc(N/N=C/c2c[nH]c3ccccc23)n1	13	15
Active		O=c1oc2ccccc2cc1-c1csc(N/N=C/c2c[nH]c3ccc(Br)cc23)n1	10	15
Active		CCn1cc(/C=N/Nc2nc(-c3cc4cc(Br)ccc4oc3=O)cs2)c2ccccc21	15	15

The remaining lines, values behind:

Compound	Activity (Escherichia coli [1])	Activity (Escherichia coli [3])	zone of inhibition at 50 µg/mL (Escherichia coli [2]) [mm]	zone of inhibition at 50 µg/mL (Bacillus subtilis) [mm]
COc1ccc2[nH]cc(/C=N/Nc3nc(-c4cc5cc(Br)cc(Br)c5oc4=O)cs3)c2c1	Active		10	10
COc1ccc2[nH]cc(/C=N/Nc3nc(-c4cc5c(ccc6ccccc65)oc4=O)cs3)c2c1	Active		12	15
O=c1oc2c(Br)cc(Br)cc2cc1-c1csc(N/N=C/c2c[nH]c3ccccc23)n1	Active		7	10
COc1ccc2[nH]cc(/C=N/Nc3nc(-c4cc5ccccc5oc4=O)cs3)c2c1	Active		10	13
Cc1[nH]c2ccccc2c1/C=N/Nc1nc(-c2cc3cc(Br)cc(Br)c3oc2=O)cs1	Active		12	15
O=c1oc2ccc3ccccc3c2cc1-c1csc(N/N=C/c2c[nH]c3ccccc23)n1	Active		14	15
Cc1[nH]c2ccccc2c1/C=N/Nc1nc(-c2cc3ccccc3oc2=O)cs1	Active		10	13
Cc1[nH]c2ccccc2c1/C=N/Nc1nc(-c2cc3cc(Cl)ccc3oc2=O)cs1	Active		6	10
